{"source": "patent US20100173983A1", "about": "“METHOD FOR INDUCING AUTOPHAGY” (priority 2007, published 2010)", "key": {"[1]": {"tested_on": "CP70 (cell line), R179, R182, R585 (primary ovarian cancer explants)", "assay": "Cell viability, CellTiter 96 Aqueous One Solution Cell Proliferation Assay, ovarian cancer cells", "assay_type": "cell-based, Human", "conditions": "concentrations up to 10 μg/ml, 24 hr exposure", "experimental": "FIG. 1. Comparative cytotoxicity of dehydroequol and Compound I as described herein (Cpd 1) against normal and ovarian cancer cells: CP70 (cell line), R179, R182, R585 (primary ovarian cancer explants) and OSE (normal ovarian surface epithelial cells). […] Both compounds were tested at concentrations up to 10 μg/ml and exposed to cells for 24 hr.\nHuman EOC cell lines A2780, CP70, and OSE were propagated in RPMI plus 10% fetal bovine serum (FBS) (Gemini Bio-Products, Woodland, Calif.) at 37° C. in a 5% CO2 atmosphere. Primary EOC cells (R179, R182, R585) were isolated from malignant ovarian ascites and cultured as previously described (Kamsteeg et al., 2003). Dehydroequol and Compound 1 (Cpd 1) were obtained from Novogen (Australia). All other reagents were purchased from Sigma Chemical (St. Louis, Mo.). The pan caspase inhibitor Z-VAD-FMK was obtained from R&D Systems (Minneapolis, Minn.).\n(§1) Cell viability was evaluated using the CellTiter 96 Aqueous One Solution Cell Proliferation Assay (Promega, Madison, Wis.) according to the manufacturer's instructions. The values from the treated cells were compared with the values generated from the untreated cells and reported as percent viability. Each experiment was performed in triplicate."}, "[2]": {"tested_on": "caspase 3", "assay": "Caspase 3 activity in xenograft tumour sections", "assay_type": "in vivo, SCID mice", "conditions": "tumour-bearing mice; not shown"}, "[3]": {"tested_on": "caspase 3", "assay": "Caspase-Glo 3/7 assay in R182 cells", "assay_type": "cell-based, Human", "conditions": "R182 ovarian cancer explants; dose response and duration of exposure (5 μg/ml, 0-25 hr)", "experimental": "FIG. 2. Comparative induction of caspase 3 in R182 ovarian cancer explants by Cpd 1 and dehydroequol using either dose response (A) or duration of exposure (B). Caspase 3 activity was assessed using the Caspase-Glo 3/7 assays.\n(§2) For caspase activity assays, 10 μg of protein in 50 μL total volume was mixed with 50 μL of equilibrated Caspase-Glo 3/7, 8, or 9 reagents (Promega). After incubating at room temperature for 1 hour, luminescence was measured using TD 20/20 Luminometer (Turner Designs, Sunnyvale, Calif.). Blank values were subtracted and fold-increase in activity was calculated based on activity measured from untreated cells. Each sample was measured in triplicate."}, "[4]": {"tested_on": "caspase 8", "assay": "Caspase-Glo 8 assay in R182 cells", "assay_type": "cell-based, Human", "conditions": "R182 ovarian cancer explants; dose response and duration of exposure (5 μg/ml, 0-25 hr)", "experimental": "FIG. 4. Comparative induction of caspase 8 in R182 ovarian cancer explants by Cpd 1 and dehydroequol using either dose response (A) or duration of exposure (B). Caspase 8 activity was assessed using the Caspase-Glo 8 assay.\nas §2"}, "[5]": {"tested_on": "ovarian cancer cells", "assay": "Cell viability in presence of pan caspase inhibitor ZVAD-FMK", "assay_type": "cell-based, Human", "conditions": "ZVAD-FMK 0.5 μg/ml", "experimental": "FIG. 5. Comparative cell viability plots of dehydroequol (A) and Cpd 1 (B) treated cells in the presence and absence of the pan caspase inhibitor ZVAD-FMK (0.5 μg/ml).\nas §1"}, "[6]": {"tested_on": "caspase 9", "assay": "Caspase-Glo 9 assay in R182 cells", "assay_type": "cell-based, Human", "conditions": "R182 ovarian cancer explants; dose response and duration of exposure (5 μg/ml, 0-25 hr)", "experimental": "FIG. 3. Comparative induction of caspase 9 in R182 ovarian cancer explants by Cpd 1 and dehydroequol using either dose response (A) or duration of exposure (B). Caspase 9 activity was assessed using the Caspase-Glo 9 assay.\nas §2"}}, "data": [{"compound": "Oc1ccc(C2=Cc3ccc(O)cc3OC2)cc1", "note": "[Dehydroequol, reference compound]", "values": [{"measurement": "cell viability of ovarian cancer cells", "setting": "[1]", "value": "does not exhibit this pan activity"}, {"measurement": "caspase 3 activity in tumour sections", "setting": "[2]", "value": "observed only in tumour sections taken from mice dosed with dehydroequol"}, {"measurement": "caspase 3 activity", "setting": "[3]", "value": "activation of caspase 3 is time (5 μg/ml) and dose dependent"}, {"measurement": "caspase 8 activity", "setting": "[4]", "value": "activation of caspase 8 is time (5 μg/ml) and dose dependent"}, {"measurement": "cell death in the presence of pan caspase inhibitor ZVAD-FMK", "setting": "[5]", "value": "apoptosis was inhibited"}, {"measurement": "caspase 9 activity", "setting": "[6]", "value": "activation of caspase 3 is time (5 μg/ml) and dose dependent"}]}]}
